Measurements from patent US7815942B2, “Rasagiline formulations of improved content uniformity” (Teva Pharmaceutical Industries, Ltd., priority 2005, dated 2010).
Like-named read-outs stand apart in the source and are kept apart here. Each block holds one compound with its values, some of them ahead of it.

Key:
[1] = Particle size distribution by Malvern laser diffraction (Mastersizer S); format: physicochemical; settings: average of two measurements
Protocol: Many analytical tools are available to determine PSD. In the early development stage, the analysis of PSD was performed through microscopic and sieve analysis. Laser diffraction was chosen as the final analytical method for measuring the PSD. Because the large particles were of major concern, the important characteristics of the PSD were the d(0.9), which is the size, in microns, below which 90% of the particles by volume are found, and the d(0.1), which is the size, in microns, below which 10% of the particles by volume are found.
R(+)PAI mesylate samples before milling contain large, irregular, plate-shaped particles of various sizes (See FIG. 1). PSDs of four different batches were measured before milling and after milling. The PSDs were measured using Malvern Laser Diffraction, using the Mastersizer S model. Laser diffraction relies on the fact that diffraction angle of light is inversely proportional to particle size. Properties of particles are measured and interpreted as measurements of a sphere (a sphere being the only shape that can be described by one unique number). In addition, laser diffraction calculates a particle size distribution based around volume terms, thus eliminating particle count from the determination of particle size. The Masterizer S model measures particles using a single technique and a single range setting.
The values in the table represent averages of two measurements. Each measurement was taken after 3 minutes of recirculation with the speed control at the 14 hour position. The dilution medium was a 1% solution of dioctyl sulfosuccinate sodium salt in n-hexane. The concentration of drug substance used in the measurements was between 0.05% and 0.35% by volume. The results were confirmed with microscopic observation. For optical microscopy, an emulsion or suspension, diluted or undiluted, was mounted on a slide or ruled cell. The microscope eyepiece was fitted with a micrometer by which the size of the particles may be estimated.
D(0.1) is the particle size, in microns, below which 10% by volume distribution of the population is found, and d(0.9) is the particle size, in microns, below which 90% by volume distribution of the population is found. […]

[2] = compared with the microcrystalline form; cited from earlier work
[3] = 18-year study, subjects, cited from earlier work

Compound: C#CCN[C@@H]1CCc2ccccc21.CS(=O)(=O)O [Batch D197/197]
d (0.1) after milling ([1]; listed as D197/197): 14 microns | d (0.9) after milling ([1]; listed as D197/197): 168 microns | d (0.1) before milling ([1]; listed as D197/197): 21 microns | d (0.9) before milling ([1]; listed as D197/197): 443 microns

Compound: O=C1CN(/N=C/c2ccc([N+](=O)[O-])o2)C(=O)N1 [macrocrystalline form of Nitrofurantoin, Nitrofurantoin]
dissolution and absorption rates [2]: slower | serum concentrations [2]: lower | time to achieve peak concentration in urine [2]: takes longer | negative side effects (adverse events) such as nausea and gastro-intestinal problems ([3]; listed as macrocrystalline form): did not manifest

Compound: O=C1CN(/N=C/c2ccc([N+](=O)[O-])o2)C(=O)N1 [microcrystalline form, Nitrofurantoin]
negative side effects (adverse events) such as nausea and gastro-intestinal problems [3]: produces negative side effects

Further lines, results first:

d (0.1) after milling ([1]; listed as D211/212): 16 microns | d (0.9) after milling ([1]; listed as D211/212): 189 microns | d (0.1) before milling ([1]; listed as D211/212): 104 microns | d (0.9) before milling ([1]; listed as D211/212): 598 microns
Compound: C#CCN[C@@H]1CCc2ccccc21.CS(=O)(=O)O [Batch D211/212]

d (0.1) after milling ([1]; listed as D222/223): 10 microns | d (0.9) after milling ([1]; listed as D222/223): 156 microns | d (0.1) before milling ([1]; listed as D222/223): 18 microns | d (0.9) before milling ([1]; listed as D222/223): 573 microns
Compound: C#CCN[C@@H]1CCc2ccccc21.CS(=O)(=O)O [Batch D222/223]

d (0.1) after milling ([1]; listed as D297/297): 11 microns | d (0.9) after milling ([1]; listed as D297/297): 160 microns | d (0.1) before milling ([1]; listed as D297/297): 20 microns | d (0.9) before milling ([1]; listed as D297/297): 386 microns
Compound: C#CCN[C@@H]1CCc2ccccc21.CS(=O)(=O)O [Batch D297/297]
